Experimental data: US20050261332A1, “Sulfonamides and uses thereof” (priority 2004, published 2005)

test system: mice; assay: fast refeed (fast-refeeding) assay in mice; format: in vivo
Protocol: In vivo assays. Exemplary in vivo assays include the fast-refeeding assay described in Example 1 and as follows.
Food is removed at 6 pm for an overnight (˜16 hour) fast. Beginning at 10 am on the next morning, mice are administered with either vehicle (e.g., saline+acetic acid, pH=5) or the compound of interest. Mice are then returned to their home cages and pre-weighed food (approximately 90 grams) is immediately returned to the food hoppers in each cage. The weight of the food remaining in the food hoppers is measured at 30 minutes, 1 hour, 2 hours, and 4 hours post compound/vehicle administration. Final body weights are then recorded for the mice.

Question: With “substance P: substance P; found to modulate GHS-R activity and to alter feeding activity of mice” as the compound, how does the “feeding activity of mice in the fast refeed assay” value read?
Answer: alters feeding activity

target: T1, GHS-R (Homo sapiens, UniProt Q92847); assay: GHS-R competition binding assay (Ki of GHS-R antagonizing compounds)
T1 construct: expressed in transfected cells; host or cells: COS-7 cells
T1 sequence (Q92847 whole entry, species assumed): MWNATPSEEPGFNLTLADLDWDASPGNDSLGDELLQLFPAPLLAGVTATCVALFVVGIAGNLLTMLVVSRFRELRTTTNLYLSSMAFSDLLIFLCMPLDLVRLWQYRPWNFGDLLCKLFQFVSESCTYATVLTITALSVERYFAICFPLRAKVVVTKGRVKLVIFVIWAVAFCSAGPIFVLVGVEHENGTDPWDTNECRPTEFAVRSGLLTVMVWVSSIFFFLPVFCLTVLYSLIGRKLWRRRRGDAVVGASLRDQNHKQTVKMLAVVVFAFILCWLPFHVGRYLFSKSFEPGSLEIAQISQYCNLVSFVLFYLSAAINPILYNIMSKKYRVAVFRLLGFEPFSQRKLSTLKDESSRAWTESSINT
Outline: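 COS-7 cells expressing GHS-R (1×10^5 cells/well) competed against 25 pM ^125I-ghrelin for 3 hours at 4° C in 50 mM HEPES pH 7.4 with 1 mM CaCl2, 5 mM MgCl2, 0.1% BSA, bacitracin. Nonspecific binding with […]; bound radioactivity counted after washing and lysis. Ki=IC50/(1+L/Kd).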

Question: Which Ki does the source give for `CCN(CC)CCCS(=O)(=O)N[C@@H](COCc1ccccc1)C(=O)N1CCC2(CC1)CN(S(C)(=O)=O)c1ccccc12` [Compound 210, (S)-N-(3-(benzyloxy)-1-(1-(methylsulfonyl)spiro[indoline-3,4′-piperidine]-1′-yl)-1-oxopropan-2-yl)-3-(diethylamino)propane-1-sulfonamide] here?
Answer: 0.1 to 1 µM

Question: How did the Ki turn out when `CCN(CC)CCCS(=O)(=O)N[C@@H](CCc1ccccc1)C(=O)N1CCC2(CC1)CN(S(C)(=O)=O)c1ccccc12` [Compound 211, (S)-3-(diethylamino)-N-(1-(1-(methylsulfonyl)spiro[indoline-3,4′-piperidine]-1′-yl)-1-oxo-4-phenylbutan-2-yl)propane-1-sulfonamide] was run?
Answer: < 0.1 µM

Question: `CCN(CC)CCS(=O)(=O)N[C@H](CCc1ccccc1)C(=O)c1ccc(-c2ccccc2CCNC(=O)NC)cc1` [Compound 212, (R)-2-(diethylamino)-N-(1-(2′-(2-(3-methylureido)ethyl)biphenyl-4-yl)-1-oxo-4-phenylbutan-2-yl)ethanesulfonamide] was tested. Which Ki did it give?
Answer: < 0.1 µM

Question: `CCN(CC)CCCS(=O)(=O)N[C@H](COCc1ccccc1)C(=O)NCc1ccc(-c2ccccc2CN)cc1` [Compound 213, (R)-N-(2′-Aminomethyl-biphenyl-4-ylmethyl)-3-benzyloxy-2-(3-diethylamino-propane-1-sulfonylamino)-propionamide] was tested. Which Ki did it give?
Answer: 0.1 to 1 µM

Question: How did the Ki turn out when `CCN(CC)CCCS(=O)(=O)N[C@H](COCc1ccccc1)C(=O)NCc1ccc(-c2ccccc2CNC(=O)NC)cc1` [Compound 214, (R)-3-Benzyloxy-2-(3-diethylamino-propane-1-sulfonylamino)-N-{2′[(3-methyl-ureido)-methyl]-biphenyl-4-ylmethyl}-propionamide] was run?
Answer: 0.1 to 1 µM

Question: With `CCN(CC)CCS(=O)(=O)N[C@H](CCc1ccccc1)C(=O)c1ccc(-c2ccccc2COC(=O)NC)cc1` [Compound 215, (R)-(4′-(2-(2-(diethylamino)ethylsulfonamido)-4-phenylbutanoyl)biphenyl-2-yl)methyl methylcarbamate] as the compound, how does the Ki read?
Answer: > 1 µM

Question: How did the Ki turn out when `CCN(CC)CCCS(=O)(=O)N[C@H](COCc1ccccc1)C(=O)NCc1ccc(-c2ccccc2CNC(C)=O)cc1` [Compound 216, (R)-N-[2′-(Acetylamino-methyl)-biphenyl-4-ylmethyl]-3-benzyloxy-2-(3-diethylamino-propane-1-sulfonylamino)-propionamide] was run?
Answer: > 1 µM

Question: `CCN(CC)CCCS(=O)(=O)N[C@H](COCc1ccccc1)C(=O)NCc1ccc(-c2ccccc2CCNC(=O)NC)cc1` [Compound 217, (R)-3-Benzyloxy-2-(3-diethylamino-propane-1-sulfonylamino)-N-{2′-[2-(3-methyl-ureido)-ethyl]-biphenyl-4-ylmethyl}-propionamide] was tested. Which Ki did it give?
Answer: 0.1 to 1 µM

Question: Which Ki does the source give for `CCN(CC)CCS(=O)(=O)N[C@H](CCc1ccccc1)C(=O)c1ccc(-c2ccccc2C(N)=O)cc1` [Compound 218, (R)-4′-(2-(2-(diethylamino)ethylsulfonamido)-4-phenylbutanoyl)biphenyl-2-carboxamide] here?
Answer: > 1 µM

Question: How did the Ki turn out when `CCN(CC)CCCS(=O)(=O)N[C@H](COCc1ccccc1)C(=O)c1ccc(-c2ccccc2COC(=O)NC)cc1` [Compound 219, (R)-Methyl-carbamic acid 4′-[(R)-3-benzyloxy-2-(3-diethylamino-propane-1-sulfonylamino)-propionyl]-biphenyl-2-ylmethyl ester] was run?
Answer: 0.1 to 1 µM

Question: `CS(=O)(=O)N1CC2(CCN(C(=O)[C@@H](CCCc3ccccc3)NS(=O)(=O)CCCN=[N+]=[N-])CC2)c2ccccc21` [Compound 220, (R)-3-azido-N-(1-(1-(methylsulfonyl)spiro[indoline-3,4′-piperidine]-1′-yl)-1-oxo-5-phenylpentan-2-yl)propane-1-sulfonamide] was tested. Which Ki did it give?
Answer: 0.1 to 1 µM

Question: Which Ki does the source give for “(R)-N-(3-(benzyloxy)-1-(1-(methylsulfonyl)spiro[indoline-3,4′-piperidine]-1′-yl)-1-oxopropan-2-yl)-3-isosulfonylazolidine [Compound 151]” here?
Answer: 0.1 to 1 µM
